Reference: US8691870B2, “Use of isothiocyanates for treating cancer” (Mackay Memorial Hospital, priority 2011, dated 2014)
Read-outs that look alike come from different tables or passages of the source.

Assays:
Assay type in all cases: cell-based, human
[1] = test system: imatinib resistant CML K562R cells; assay: Cell cycle analysis (flow cytometry) of imatinib resistant CML K562R cells; settings: 24 hours
Description: The CML cell line, K562R, was cultured in the presence of a continuous low dose of imatinib mesylate, which is also termed STI-571, to generate their resistance to imatinib. In operation, K562R cells were maintained in the DMEM supplemented with 10% fetal calf serum (FCS), 100 IU/ml penicillin, 100 μg/ml streptomycin, 2 mM glutamine and 0.2 μM imatinib in 5% CO2 at 37° C.
(§1) The fixed cells were then warmed up to room temperature and treated with RNAase A for about 30 min. Precipitated cells were collected by centrifugation and re-suspended in a buffer solution containing propidium iodine (20 μg/ml) before being subject to flow cytometry analysis, where cell numbers at respective cell cycles were determined.
(§2) The imatinib resistant human chronic myelogenous leukemia (CML) cell line K562R was induced by procedures described above in the “Materials and Methods” Section. Anti-proliferative activity of I7557 and I7557 were respectively assessed by cell viability and cell cycle analysis, as well as by immunoblot and Liu's Staining.

[2] = test system: imatinib resistant CML K562R cells; assay: Liu's staining, morphology of imatinib resistant CML K562R cells; settings: 20 μM, indicates apoptosis and mitotic arrest
Source text: as §2

β-tubulin = assay: Immunoblot analysis of β-tubulin in K562R cells; settings: FIG. 4
Description: (§3) Cultured cells were lysed by use of well known lysing buffer, and total amount of proteins were determined by Bradford method. […] The separated proteins were then transferred to nitrocellulose membrane and non-specific binding was removed by TBST buffer (0.8% NaCl, 0.02% KCl, 25 mM Tris-HCl/pH 8.0 and 0.1% Tween-20) containing 4% skim milk. Antibodies including p-Plk-1, p-Chk-1, p-Chk-2, p-Cdc2, GAPDH, α-tubulin, β-tubulin, and p-histone H3 (purchased from Transduction Laboratories, Lexington, Ky., USA), were respectively dissolved in TBST buffer containing 2% skim milk and incubated with the separated protein bands at 4° C. for at least over night; followed by incubation with horseradish conjugated secondary antibodies at room temperature for about 30 min, and then detected by ECL chemiluminesance detection kit (Amersham Pharmacia Biotech, US).

cyclin B1 = assay: Immunoblot analysis of cyclin B1 in K562R cells; settings: FIG. 5
Description: as §3

p-Plk-1 = assay: Immunoblot analysis of phosphorylated Plk-1 in K562R cells; settings: FIG. 6
Description: as §3

p-Chk-1 = assay: Immunoblot analysis of p-Chk-1 in K562R cells; settings: FIG. 7
Description: as §3

p-Chk-2 = assay: Immunoblot analysis of p-Chk-2 in K562R cells; settings: FIG. 8
Description: as §3

p-Cdc2 kinase = assay: Immunoblot analysis of p-cdc2 kinase in K562R cells; settings: FIG. 9
Description: as §3

[3] = test system: phosphorylated histone H3; assay: Immunoblot analysis of phosphorylated histone H3 in K562R cells; settings: FIG. 10
Description: as §3

PANC-1 cells [4] = assay: Cell cycle analysis of PANC-1 cells; settings: 24 hours
Description: as §1

PANC-1 cells [5] = assay: Radiation treatment and clonogenic assay, PANC-1 cells
Source text: (§4) The drugs were then washed out, and cells were subject to radiation treatment. Specifically, 6 MeV electron beam energy was delivered by a linear accelerator (Clinac 1800, Varian Associates, Inc., Palo Alto, Calif., USA) with a rate of 2.4 Gy/min at various dose including 0, 0.5, 1, 2 and 4 Gy in a single fraction. Full electron equilibrium was ensured for each fraction by a parallel plate PR-60C ionization chamber ([…], Inc., Ramsey, N.Y., USA).
(§5) After radiation treatment, cells were returned to the culture for another 10 to 14 days; then were stained with 3% crystal violet and the numbers of colony (≧50 cells) were counted.
(§6) The colony is defined to consist of at least 50 cells.

BxPC-3 cells = assay: Radiation treatment and clonogenic assay, BxPC-3 cells
Source text: as §4, §5, §6

81T/VGH cells = assay: MTT cell viability assay on 81T/VGH cells; set-up: key to Cell viability (MTT reading), I / Cell viability (MTT reading), II / Cell viability (MTT reading), III / Cell viability (MTT reading), Average: absorbance at 570 nm; settings: 48 hours; for Cell viability (MTT reading), I: replicate I; for Cell viability (MTT reading), II: replicate II; for Cell viability (MTT reading), III: replicate III
Description: (§7) Cell lines used in the present disclosure include human chronic myelogenous leukemia (CML) cell line K562, Imatinib-resistant K562 cell line K562R, human pancreatic carcinoma, epithelial-like cell line PANC-1, human pancreatic cancer cell line BxPc-3, human large cell lung cancer cell line SEG-1, human esophageal squamous cell carcinoma line 81T/VGH and human esophageal adenocarcinoma line BE-3. Each cell lines were cultured and maintained in Dulbecco's modified Eagle media (DMEM) supplemented with 10% fetal calf serum, 100 IU/ml penicillin, 100 μg/ml streptomycin, and 2 mM glutamine in 5% CO2 at 37° C.
(§8) The absorbance of the solution at 570 nm was measured by spectrophotometer.

BE-3 cells = assay: MTT cell viability assay on BE-3 cells; set-up: key to Cell viability (MTT reading), I / Cell viability (MTT reading), II / Cell viability (MTT reading), Average / Cell viability (MTT reading), III: absorbance at 570 nm; settings: for Cell viability (MTT reading), I: replicate I; for Cell viability (MTT reading), II: replicate II
Description: as §7, §8

CS(=O)(=O)CCCCCCN=C=S [I7557, 6-methylsulfonylhexyl isothiocyanate]
Cell Cycle (%) G0/G1 ([1]; 5 μM): 30.79 ± 2.28%
Cell Cycle (%) G2/M ([1]; 5 μM): 22.84 ± 0.60%
Cell Cycle (%) S ([1]; 5 μM): 46.38 ± 1.73%
Cell Cycle (%) Sub-G1% ([1]; 5 μM): 0.52 ± 0.07%
Cell Cycle (%) G0/G1 ([1]; 10 μM): 30.52 ± 0.96%
Cell Cycle (%) G2/M ([1]; 10 μM): 18.40 ± 1.16%
Cell Cycle (%) S ([1]; 10 μM): 51.08 ± 0.36%
Cell Cycle (%) Sub-G1% ([1]; 10 μM): 1.18 ± 0.08%
Cell Cycle (%) G0/G1 ([1]; 20 μM): 11.54 ± 6.51%
Cell Cycle (%) G2/M ([1]; 20 μM): 65.10 ± 8.16%
Cell Cycle (%) S ([1]; 20 μM): 23.36 ± 2.45%
Cell Cycle (%) Sub-G1% ([1]; 20 μM): 5.33 ± 1.46%
Cell morphology after Liu's staining [2]: round up with an appearance of a balloon
β-tubulin levels vs control cells (β-tubulin): lowered
level of cyclin B1 vs control (cyclin B1): increased
level of phosphorylated Plk-1 vs control (p-Plk-1): increased
level of p-Chk-1 vs control (p-Chk-1): decreased
level of p-Chk-2 vs control (p-Chk-2): decreased
level of p-cdc2 kinase vs control (p-Cdc2 kinase): decreased
levels of phosphorylated histone H3 vs control cells [3]: significantly higher
Cell Cycle (%) G0/G1 (PANC-1 cells [4]; 10 μM): 45.43 ± 1.27%
Cell Cycle (%) G2/M (PANC-1 cells [4]; 10 μM): 28.38 ± 2.41%
Cell Cycle (%) S (PANC-1 cells [4]; 10 μM): 26.19 ± 3.28%
Cell Cycle (%) Sub-G1% (PANC-1 cells [4]; 10 μM): 0.79 ± 0.05%
Cell Cycle (%) G0/G1 (PANC-1 cells [4]; 20 μM): 24.71 ± 2.98%
Cell Cycle (%) G2/M (PANC-1 cells [4]; 20 μM): 55.84 ± 0.63%
Cell Cycle (%) S (PANC-1 cells [4]; 20 μM): 19.45 ± 3.32%
Cell Cycle (%) Sub-G1% (PANC-1 cells [4]; 20 μM): 2.05 ± 0.44%
Number of colonies (clonogenic assay) (PANC-1 cells [5]; PANC-1, 5 μM pre-treatment 24 hours, radiation 0 Gy): 60
Number of colonies (clonogenic assay) (PANC-1 cells [5]; PANC-1, 5 μM pre-treatment 24 hours, radiation 0.5 Gy): 63
Number of colonies (clonogenic assay) (PANC-1 cells [5]; PANC-1, 5 μM pre-treatment 24 hours, radiation 1 Gy): 59
Number of colonies (clonogenic assay) (PANC-1 cells [5]; PANC-1, 5 μM pre-treatment 24 hours, radiation 2 Gy): 48
Number of colonies (clonogenic assay) (PANC-1 cells [5]; PANC-1, 5 μM pre-treatment 24 hours, radiation 4 Gy): 20
susceptibility of cells to radiation treatment (PANC-1 cells [5]; PANC-1, 10 μM): enhancing the susceptibility
Number of colonies (clonogenic assay) (PANC-1 cells [5]; PANC-1, 10 μM pre-treatment 24 hours, radiation 0 Gy): 41
Number of colonies (clonogenic assay) (PANC-1 cells [5]; PANC-1, 10 μM pre-treatment 24 hours, radiation 0.5 Gy): 26
Number of colonies (clonogenic assay) (PANC-1 cells [5]; PANC-1, 10 μM pre-treatment 24 hours, radiation 1 Gy): 35
Number of colonies (clonogenic assay) (PANC-1 cells [5]; PANC-1, 10 μM pre-treatment 24 hours, radiation 2 Gy): 19
Number of colonies (clonogenic assay) (PANC-1 cells [5]; PANC-1, 10 μM pre-treatment 24 hours, radiation 4 Gy): 6
Number of colonies (clonogenic assay) (BxPC-3 cells; BxPC-3, 5 μM pre-treatment 24 hours, radiation 0 Gy): 33
Number of colonies (clonogenic assay) (BxPC-3 cells; BxPC-3, 5 μM pre-treatment 24 hours, radiation 0.5 Gy): 37
Number of colonies (clonogenic assay) (BxPC-3 cells; BxPC-3, 5 μM pre-treatment 24 hours, radiation 1 Gy): 39
Number of colonies (clonogenic assay) (BxPC-3 cells; BxPC-3, 5 μM pre-treatment 24 hours, radiation 2 Gy): 29
Number of colonies (clonogenic assay) (BxPC-3 cells; BxPC-3, 5 μM pre-treatment 24 hours, radiation 4 Gy): 9
Number of colonies (clonogenic assay) (BxPC-3 cells; BxPC-3, 10 μM pre-treatment 24 hours, radiation 0 Gy): 16
Number of colonies (clonogenic assay) (BxPC-3 cells; BxPC-3, 10 μM pre-treatment 24 hours, radiation 0.5 Gy): 15
Number of colonies (clonogenic assay) (BxPC-3 cells; BxPC-3, 10 μM pre-treatment 24 hours, radiation 1 Gy): 8
Number of colonies (clonogenic assay) (BxPC-3 cells; BxPC-3, 10 μM pre-treatment 24 hours, radiation 2 Gy): 7
Number of colonies (clonogenic assay) (BxPC-3 cells; BxPC-3, 10 μM pre-treatment 24 hours, radiation 4 Gy): 1
susceptibility of cells to radiation treatment (BxPC-3 cells; BxPc-3, 10 μM): enhancing the susceptibility
Cell viability (MTT reading), Average (81T/VGH cells; 10 μM): 1.514 ± 0.104
Cell viability (MTT reading), I (81T/VGH cells; 10 μM): 1.324
Cell viability (MTT reading), II (81T/VGH cells; 10 μM): 1.682
Cell viability (MTT reading), III (81T/VGH cells; 10 μM): 1.537
Cell viability (MTT reading), Average (81T/VGH cells; 20 μM): 0.965 ± 0.086
Cell viability (MTT reading), I (81T/VGH cells; 20 μM): 0.804
Cell viability (MTT reading), II (81T/VGH cells; 20 μM): 0.991
Cell viability (MTT reading), III (81T/VGH cells; 20 μM): 1.100
inhibition at 10 µM (81T/VGH cells; Homo sapiens, 10 μM): 30.6 ± 5.18%
inhibition at 20 µM (81T/VGH cells; Homo sapiens, 20 μM): 55.4 ± 6.11%
Cell viability (MTT reading), Average (BE-3 cells; BE-3, 10 μM, 48 hours): 1.635 ± 0.078
Cell viability (MTT reading), I (BE-3 cells; BE-3, 10 μM, 48 hours): 1.581
Cell viability (MTT reading), II (BE-3 cells; BE-3, 10 μM, 48 hours): 1.534
Cell viability (MTT reading), Average (BE-3 cells; BE-3, 20 μM, 48 hours): 1.151 ± 0.028
Cell viability (MTT reading), I (BE-3 cells; BE-3, 20 μM, 48 hours): 1.105
Cell viability (MTT reading), II (BE-3 cells; BE-3, 20 μM, 48 hours): 1.147
Cell viability (MTT reading), III (BE-3 cells; BE-3, 20 μM, 48 hours, replicate III): 1.201
inhibition at 10 µM (BE-3 cells; Homo sapiens, BE-3, 10 μM, 48 hours): 26.8 ± 1.05%
inhibition at 20 µM (BE-3 cells; Homo sapiens, BE-3, 20 μM, 48 hours, read-out: % of inhibition): 48.4 ± 1%
inhibition at 20 µM (BE-3 cells; Homo sapiens, BE-3, 20 μM, read-out: cancerous cells' growth inhibition): ~50%
